A short description of series [1]: Solubilization of choline and sodium salts of FTS and other acidic drugs by cyclodextrins. As for the experimental part:
The solid obtained thereby was heated on a boiling water bath.
In this procedure, FTS (10 mg, 28 micromoles) was dissolved with warming in ethanol (20 microliters) and an aqueous solution of sodium hydroxide (30 microliters of 1 M NaOH carbonate free, i.e., 30 micromoles) was added. […] This clear solution then was added to the solution of Pitha methyl derivative (100 mg) in isotonic phosphate buffered saline (1 ml, pH 7.4).
In these investigations, choline salts were prepared by extraction with organic solvents of mixtures of sodium salts of the anion in question and choline chloride. There mixtures were either solid or in aqueous solutions.

Series [2] can be described thus: Solubilization of additional guests by two different hosts. The series is classed as physicochemical. To be noted: for solubility at 1 week: water containing solubilising hosts, aqueous with cosolvent or surfactant or cyclodextrin, thermodynamic from solid. The source says: Techniques were as described in Example 1 and water was used as a solvent. As shown in Table for Example 4, complexes of two hosts increased the solubility of retinoic acid and taxol compared to the solubility obtained with individual hosts.

The nature of a further series: physchem. From the text: A slight excess of FTS was equilibrated with water containing one host at 5% concentration or two hosts, each at 5% concentration, by rotation for a week. The suspension was then filtered through a millipore filter and the concentration of FTS in filtrate determined by ultraviolet spectrophotometry. […] The cooperativity index reflects the improvement in solubility obtained with each combination of two hosts over the solubility obtained with each of the individual hosts involved in the two-host system. It is computed by dividing the obtained solubility with two hosts by the sum of the individual solubilities obtained with each component.

Series [3] in a line: Solubilization of FTS by two different hosts in water (equilibration for a week, filtration, UV spectrophotometry). The series is classed as physicochemical. The conditions noted are these: for solubility at 1 week: aqueous host solution, aqueous with cosolvent or surfactant or cyclodextrin, thermodynamic from solid. As for the experimental part: (§1) no enhancement with two hosts. Water was used as the solvent for all data in the Table for Example 1. When a sodium carbonate based buffer of pH 10 was used as a solvent (conditions in which FTS is converted to its salt), the solubility of FTS in TRIMEA combined with DIMEB or in TRIMEA combined with Pitha methyl derivatives exceeds 60 mg per ml. Cooperativity, in this case, could not be calculated since, in these conditions, even solubilization by one component alone (DIMEB or Pitha methyl derivative) was over 60 mg per ml.

A short description of series [4]: Solubilization of FTS by hosts in sodium carbonate based buffer of pH 10. The series is classed as physicochemical. As for the experimental part: as §1
Series [5] in a line: Solubilization of FTS by TRIMEA and DIMEB: continuous variation and concentration dependence. The series is classed as physicochemical. To be noted: water. The source says:
The optimum ratio of hosts was established by the continuous variation method, using techniques of Example 1 and water as a solvent. The results in Table A for Example 3 indicate that the optimum solubility is obtained when both hosts are in about equal concentrations. […]

Experiment in series [6]: as above
The series is classed as physicochemical.

[7] abbreviates: host combination TRIMEA - DIMEB, water.
Where [8] appears, read: host combination TRIMEA - Pitha Methyl 258, water.
The mark [9] stands for this setting: host combination TRIMEA - RAMEB, water.
Where [10] appears, read: host combination TRIMEA - TRIMEB, water.
The mark [11] stands for this setting: hosts Alpha Cyclodextrin - DIMEB, each 5% in water.
Setting [12] is: hosts Alpha Cyclodextrin - TRIMEB, each 5% in water.
Where [13] appears, read: hosts Beta Cyclodextrin - TRIMEB, each 5% in water.
Where [14] appears, read: hosts DIMEB - PERM HPBCD, each 5% in water.
The mark [15] stands for this setting: hosts DIMEB - TRIMEB, each 5% in water.
Setting [16] is: hosts DIMEB - TRIMEG, each 5% in water.
[17] abbreviates: hosts G2 - DIMEB, each 5% in water.
Setting [18] is: hosts G2 - TRIMEB, each 5% in water.
Where [19] appears, read: hosts G2 - TRIMEG, each 5% in water.
Where [20] appears, read: hosts HPACD - HPBCD, each 5% in water.
Where [21] appears, read: hosts Pitha Methyl 258 - TRIMEB, each 5% in water.
Where [22] appears, read: hosts Pitha Methyl 322 - DIMEB, each 5% in water.
Where [23] appears, read: hosts TRIMEA - DIMEB, each 5% in water.
The mark [24] stands for this setting: hosts TRIMEA - G2, each 5% in water.
The mark [25] stands for this setting: hosts TRIMEA - Pitha Methyl 258, each 5% in water.
The mark [26] stands for this setting: host combination DIMEB - TRIMEB (first line, r7), water.
Where [27] appears, read: host combination DIMEB - TRIMEB (printed a second time, r8), water.

This note sets out measurements from patent US6576261B1, “Potentiation of inclusion complex formation of cyclodextrin derivatives” (priority 1999, dated 2003).

In brackets after ≈: the same amount, converted by molar mass.

For `O=C(O)c1ccccc1O` [salicylic acid], the “solubilization of choline salts” value in series [1] is given as “easily solubilized”.

Consider `Nc1ccc(S(=O)(=O)Nc2ncccn2)cc1` [sulfadiazine], for which the “solubilization of choline salts” value in series [1] is “easily solubilized”.

Consider `CC1=C(/C=C/C(C)=C/C=C/C(C)=C/C(=O)O)C(C)(C)CCC1` [Retinoic Acid], for which the Cooperativity is 1.45 in series [2] (setting [7]), 1.13 in series [2] (setting [8]), 1.08 in series [2] (setting [9]) and 0.7 in series [2] (setting [10]). The solubility (in general, the concentration that dissolves in the medium under given conditions) at 1 week in series [2] (setting [7]) turned out to be 71 µg/mL; in series [2] (setting [8]), 52 µg/mL; in series [2] (setting [9]), 56 µg/mL; in series [2] (setting [10]) it was 12 µg/mL. Moreover, the “single, highly methylated cyclodextrin host outperformed the current standard” value in “physchem” (1 week) is on record as 2.5 times.

With `COc1ccc2c(c1)c(CC(=O)O)c(C)n2C(=O)c1ccc(Cl)cc1` [indomethacin], in series [1], the “solubilization of choline salts” value is “easily solubilized”.

As for `CC(C)=CCCC(C)=CCCC(C)=CCSc1ccccc1C(=O)O` [FTS, S-farnesylthiosalicylic acid], the solubility at 1 week in series [3] (setting [11]) was 1400 µg/mL (≈ 3.9 mM); in series [3] (setting [12]), 100 µg/mL (≈ 0.279 mM); in series [3] (setting [13]), 26 µg/mL (≈ 0.0725 mM); in series [3] (setting [14]) it was 1100 µg/mL (≈ 3.07 mM); in series [3] (setting [15]) it was 2600 µg/mL (≈ 7.25 mM); in series [3] (setting [16]), 1400 µg/mL (≈ 3.9 mM). Also, the solubility at 1 week was 2400 µg/mL (≈ 6.69 mM) in series [3] (setting [17]); 1100 µg/mL (≈ 3.07 mM) in series [3] (setting [18]); 1000 µg/mL (≈ 2.79 mM) in series [3] (setting [19]); 52 µg/mL (≈ 0.145 mM) in series [3] (setting [20]); 950 µg/mL (≈ 2.65 mM) in series [3] (setting [21]); 1300 µg/mL (≈ 3.63 mM) in series [3] (setting [22]). Also, the solubility at 1 week in series [3] (setting [23]) stood at 6600 µg/mL (≈ 18.4 mM); in series [3] (setting [24]), 3900 µg/mL (≈ 10.9 mM); in series [3] (setting [25]), 5700 µg/mL (≈ 15.9 mM). In addition, the “Cooperativity (observed ÷ Σ components)” value in series [3] (setting [11]) was 1.0; in series [3] (setting [12]) it was 0.6; in series [3] (setting [13]), 0.2; in series [3] (setting [14]), 0.8; in series [3] (setting [15]), 1.8; in series [3] (setting [16]) it was 1.0. Also, the “Cooperativity (observed ÷ Σ components)” value in series [3] (setting [17]) came to 1.0; in series [3] (setting [18]), 1.0; in series [3] (setting [19]), 1.0; in series [3] (setting [20]), 0.3; in series [3] (setting [21]), 1.4; in series [3] (setting [22]), 0.7. The “Cooperativity (observed ÷ Σ components)” value is given as 4.1 in series [3] (setting [23]), 3.0 in series [3] (setting [24]) and 9.4 in series [3] (setting [25]). The “solubility of FTS” value in series [4] (TRIMEA combined with DIMEB, sodium carbonate based buffer of pH 10 (FTS converted to its salt)) was “exceeds 60 mg per ml”; in series [4] (TRIMEA combined with Pitha methyl derivatives, sodium carbonate based buffer of pH 10), “exceeds 60 mg per ml”. The “FTS” value in series [5] (TRIMEA 0 % w/w, DIMEB 5 % w/w) came out at 1.55 mg/mL; in series [5] (TRIMEA 1 % w/w, DIMEB 4 % w/w), 2.29 mg/mL; in series [5] (TRIMEA 2 % w/w, DIMEB 3 % w/w), 2.66 mg/mL; in series [5] (TRIMEA 3 % w/w, DIMEB 2 % w/w), 2.79 mg/mL; in series [5] (TRIMEA 4 % w/w, DIMEB 1 % w/w) it was 2.33 mg/mL; in series [5] (TRIMEA 5 % w/w, DIMEB 0 % w/w) it was 0.19 mg/mL. For the same compound, the “FTS” value amounted to 2.13 mg/mL in series [6] (TRIMEA 2 % w/w, DIMEB 2 % w/w); 8.53 mg/mL in series [6] (TRIMEA 5 % w/w, DIMEB 5 % w/w); 15.86 mg/mL in series [6] (TRIMEA 10 % w/w, DIMEB 10 % w/w). Moreover, the “single, highly methylated cyclodextrin host outperformed the current standard” value in the series “physchem” (1 week) is “over 2 times”. The “solubilization of choline salts” value in series [1] is listed as “easily solubilized”. Besides, the “FTS (mg/ml)” value in series [6] (TRIMEA 15 % w/w, DIMEB 15 % w/w) is “(>than 17.17, all dissolved) mg/ml”.

On to `CN1C(C(=O)Nc2ccccn2)=C(O)c2ccccc2S1(=O)=O` [piroxicam], for which the “solubilization of choline salts” value in series [1] is “easily solubilized”.

As to `CC(C)Cc1ccc(C(C)C(=O)O)cc1` (stereo not shown) [ibuprofen], the “solubilization of choline salts” value in series [1] is “easily solubilized”.

In the case of `CC(=O)O[C@H]1C(=O)[C@@]2(C)[C@H]([C@H](OC(=O)c3ccccc3)[C@]3(O)C[C@H](OC(=O)[C@H](O)[C@@H](NC(=O)c4ccccc4)c4ccccc4)C(C)=C1C3(C)C)[C@]1(OC(C)=O)CO[C@@H]1C[C@@H]2O` [Taxol], in series [2] (setting [7]), the Cooperativity was determined as 1.49. Also, the solubility at 1 week was determined as 1000 µg/mL in series [2] (setting [7]) and 290 µg/mL in the series “physchem” (aqueous with cosolvent or surfactant or cyclodextrin, thermodynamic from solid, Solubility). In “physchem” (1 week), the Solubility – broadly, the concentration that dissolves in the medium under given conditions – turned out to be 380 µg/mL.

On to `C[C@@H]1[C@H](O)[C@@H](C)/C=C/C=C/C=C/C=C/C=C/C=C/C=C/[C@H](O[C@@H]2O[C@H](C)[C@@H](O)[C@H](N)[C@@H]2O)C[C@@H]2O[C@](O)(C[C@@H](O)C[C@@H](O)[C@H](O)CC[C@@H](O)C[C@@H](O)CC(=O)O[C@H]1C)C[C@H](O)[C@H]2C(=O)O` [Amphotericin B], for which the Cooperativity amounted to 0.7 in series [2] (setting [26]), 0.9 in series [2] (setting [27]) and 0.9 in series [2] (setting [7]). Besides, the Solubility in series [2] (setting [26]) came out at 131 µg/mL; in series [2] (setting [27]) it was 158 µg/mL; in series [2] (setting [7]) it was 185 µg/mL. Also, in series [1], the “solubilization of choline salts” value is “easily solubilized”.

`CC(C)=CCC/C(C)=C/CC/C(C)=C/CSc1ccccc1C(=O)[O-].C[N+](C)(C)CCO` [choline salt of FTS]: the “precipitate formation upon acidification” value in series [1] (cyclodextrin-solubilized salts) is “less prone to form precipitate upon acidification than sodium salts”. The pH of solution in series [1] (powder of choline salt of FTS with methylated beta-cyclodextrin dissolved in water, paper strip indicator) is 6.5. In series [1] (solid powder of choline salt of FTS with methylated beta-cyclodextrin), the “dissolution of the powder in water” value was “dissolved easily and fully in water”.

For the compound `Cc1ccc(C(=O)Nc2ccc(S(=O)(=O)O)c3cc(S(=O)(=O)O)cc(S(=O)(=O)O)c23)cc1NC(=O)c1cccc(NC(=O)Nc2cccc(C(=O)Nc3cc(C(=O)Nc4ccc(S(=O)(=O)O)c5cc(S(=O)(=O)O)cc(S(=O)(=O)O)c45)ccc3C)c2)c1` [suramin], the “solubilization of choline salts” value in series [1] is “easily solubilized”.
